In patent US10590113B2, “6-hydroxy-4-oxo-1,4-dihydropyrimidine-5-carboxamides as APJ agonists” (priority 2016, dated 2020):
Like-named read-outs stand apart in the source and are kept apart here.

Molecular target: T1, human APJ receptor (Homo sapiens, UniProt P35414)
T1 construct: expressed in transfected cells; host or cells: HEK293
T1 sequence (P35414 1-380): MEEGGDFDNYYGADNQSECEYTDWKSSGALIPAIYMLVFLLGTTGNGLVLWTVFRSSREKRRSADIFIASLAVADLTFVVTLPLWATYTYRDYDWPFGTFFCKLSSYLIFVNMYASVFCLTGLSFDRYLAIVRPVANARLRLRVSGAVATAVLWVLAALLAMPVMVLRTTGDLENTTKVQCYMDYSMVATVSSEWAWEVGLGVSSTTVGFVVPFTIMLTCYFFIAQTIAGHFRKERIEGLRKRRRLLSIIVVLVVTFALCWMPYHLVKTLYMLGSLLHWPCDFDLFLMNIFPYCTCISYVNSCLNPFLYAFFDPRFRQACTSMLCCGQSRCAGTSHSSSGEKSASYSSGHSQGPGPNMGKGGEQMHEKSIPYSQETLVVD
Assay: Intracellular cAMP Accumulation Assay (APJ hcAMP, HTRF)
Type: cell-based
Procedure: Intracellular cAMP Accumulation Assay
HEK293 cells stably expressing human APJ receptor were used to assess the activity of compounds. Cultured cells were detached and resuspended in the cAMP
Homogeneous Time-Resolved Fluorescence (HTRF) assay buffer (Cisbio cat; #62AM4PEJ). The assay was performed in 384-well assay plates (Perkin-Elmer; cat #6008289) according to assay protocol provided by the manufacturer. Serial dilutions of a compound together with assay buffer containing […] IBMX and 2 μM forskolin were added to each well containing 5,000 cells and incubated for 30 minutes at room temperature. Subsequently, cAMP D2 reagent was added in the lysis buffer followed by the EuK antibody (Cisbio; cat #62AM4PEJ) and incubated for 60 min. The fluorescence emission ratio was measured using fluorometer. The intracellular cAMP concentrations (compound-stimulated inhibition of forskolin-mediated cAMP production) were calculated by extrapolation from a standard curve using known cAMP concentrations. The EC50 values were obtained by fitting the data to a sigmoidal concentration-response curve with variable slope.
The EC50 value of each compound is presented at the end of the example description.
The biological activity of the exemplified compounds of this invention determined by the assay described above is shown at the end of each example.

[1] = human APJ, cAMP accumulation, potency range class, read-out: hAPJ cAMP EC50 Potency range
[2] = human APJ, intracellular cAMP accumulation, read-out: hAPJ cAMP EC50 Potency range
[3] = HEK293 cells stably expressing human APJ receptor, inhibition of forskolin-mediated cAMP production, read-out: Human APJ cAMP EC50 potency range

COc1cccc(OC)c1-n1c(-c2ccc(C)cn2)nc(=O)c(C(=O)N2CCC(c3c(F)cccc3F)C2)c1O (single isomer, unassigned) [Example 274, 5-[3-(2,6-difluorophenyl)pyrrolidine-1-carbonyl]-1-(2,6-dimethoxyphenyl)-6-hydroxy-2-(5-methylpyridin-2-yl)-1,4-dihydropyrimidin-4-one]
EC50 [1]: 0.01 to 10 nM

CCCCc1nc(=O)c(C(=O)N2CCC(c3ncc(Cl)cc3F)C2)c(O)n1[C@@H](COC)c1ccccc1 (stereo partly drawn) [Example 350, 2-butyl-5-[3-(5-chloro-3-fluoropyridin-2-yl)pyrrolidine-1-carbonyl]-6-hydroxy-3-[(1R)-2-methoxy-1-phenylethyl]-3,4-dihydropyrimidin-4-one]
EC50 [1]: 0.01 to 10 nM

CCc1cccc(CC)c1-n1c(COC(C)C)nc(=O)c(C(=O)N2CCC(c3ccccc3F)C2)c1O (single isomer, unassigned) [Example 25, 1-(2,6-diethylphenyl)-5-(3-(2-fluorophenyl)pyrrolidine-1-carbonyl)-6-hydroxy-2-(isopropoxymethyl) pyrimidin-4(1H)-one]
EC50 [2]: 0.01 to 10 nM

COc1cccc(OC)c1-n1c(-c2cncc(Cl)c2)nc(=O)c(C(=O)N2CCC(c3c(F)cccc3F)C2)c1O (single isomer, unassigned) [Example 247, 2-(5-chloropyridin-3-yl)-5-[3-(2,6-difluorophenyl)pyrrolidine-1-carbonyl]-1-(2,6-dimethoxyphenyl)-6-hydroxy-1,4-dihydropyrimidin-4-one]
EC50 [1]: 0.01 to 10 nM

COc1cccc(OC)c1-n1c(CC2CC2)nc(=O)c(C(=O)N2CCC(c3ccccc3F)C2)c1O (single isomer, unassigned) [Example 226, 2-(cyclopropylmethyl)-1-(2,6-dimethoxyphenyl)-5-[3-(2-fluorophenyl)pyrrolidine-1-carbonyl]-6-hydroxy-1,4-dihydropyrimidin-4-one]
EC50 [1]: 0.01 to 10 nM

COc1cccc(OC)c1-n1c(-c2ccc(Cl)nc2)nc(=O)c(C(=O)N2CCC(c3c(F)cccc3F)C2)c1O (single isomer, unassigned) [Example 281, 2-(6-chloropyridin-3-yl)-5-[3-(2,6-difluorophenyl)pyrrolidine-1-carbonyl]-1-(2,6-dimethoxyphenyl)-6-hydroxy-1,4-dihydropyrimidin-4-one]
EC50 [1]: 0.01 to 10 nM

CCCCc1nc(=O)c(C(=O)N2CC[C@H](c3ccccc3)C2)c(O)n1[C@H](C)c1ccccc1OC [Example 122, 2-butyl-6-hydroxy-3-[(1R)-1-(2-methoxyphenyl)ethyl]-5-[(3R)-3-phenylpyrrolidine-1-carbonyl]-3,4-dihydropyrimidin-4-one]
EC50 [2]: 0.01 to 10 nM

CCCCc1nc(=O)c(C(=O)N2CCC(c3ccncc3)C2)c(O)n1-c1c(OC)cccc1OC (single isomer, unassigned) [Example 47, 2-butyl-1-(2,6-dimethoxyphenyl)-6-hydroxy-5-[3-(pyridin-4-yl)pyrrolidine-1-carbonyl]-1,4-dihydropyrimidin-4-one]
EC50: 0.01 to 10 nM

CC[C@@H](c1cc(F)cc(F)c1)n1c(-c2cnn(C)c2)nc(=O)c(C(=O)N2CCC(c3ccc(Cl)cn3)C2)c1O (single isomer, unassigned) [Example 183]
EC50 [2]: 0.01 to 10 nM

CCCCc1nc(=O)c(C(=O)N2CCC(c3ncccc3F)C2)c(O)n1-c1c(OC)cccc1OC (single isomer, unassigned) [Example 366, 2-butyl-1-(2,6-dimethoxyphenyl)-5-(3-(3-fluoropyridin-2-yl)pyrrolidine-1-carbonyl)-6-hydroxypyrimidin-4(1H)-one]
EC50 [1]: 0.01 to 10 nM

C=CCCc1nc(O)c(C(=O)N2CC[C@H](c3ccccc3)C2)c(=O)n1-c1c(C)cccc1OC (single isomer, unassigned) [Example 8″]
EC50 [3]: 0.01 to 10 nM

CCCCc1nc(=O)c(C(=O)N2CCC(c3ccccn3)C2)c(O)n1-c1c(OC)cccc1OC (single isomer, unassigned) [Example 70, 2-butyl-1-(2,6-dimethoxyphenyl)-6-hydroxy-5-[3-(pyridin-2-yl)pyrrolidine-1-carbonyl]-1,4-dihydropyrimidin-4-one]
EC50 (read-out: hAPJ cAMP EC50 Potency range, human APJ, intracellular cAMP accumulation): 0.01 to 10 nM

C=CCCc1nc(O)c(C(=O)N2CC[C@H](c3ccccc3)C2)c(=O)n1-c1c(C)cccc1OC (single isomer, unassigned) [Example 8]
EC50 [3]: 0.01 to 10 nM

COc1cccc(OC)c1-n1c(CC2CC2)nc(=O)c(C(=O)N2CCC(c3ccncc3)C2)c1O (single isomer, unassigned) [Example 230, 2-(cyclopropylmethyl)-1-(2,6-dimethoxyphenyl)-6-hydroxy-5-[3-(pyridin-4-yl)pyrrolidine-1-carbonyl]-1,4-dihydropyrimidin-4-one]
EC50 [1]: 10 to 100 nM

CCCCc1nc(=O)c(C(=O)N2CCC(c3ncc(F)cc3F)C2)c(O)n1-c1c(OC)cccc1OC (single isomer, unassigned) [Example 359, 2-butyl-5-(3-(3,5-difluoropyridin-2-yl)pyrrolidine-1-carbonyl)-1-(2,6-dimethoxyphenyl)-6-hydroxypyrimidin-4(1H)-one]
EC50 [1]: 0.01 to 10 nM

CCCCc1nc(=O)c(C(=O)N2CCC(c3cccc(F)c3)C2)c(O)n1[C@@H](CC)c1ccccc1 (single isomer, unassigned) [Example 119]
EC50 [2]: 0.01 to 10 nM

CCCCc1nc(=O)c(C(=O)N2CC[C@H](c3ccccc3)C2)c(O)n1[C@@H](C)c1ccc(F)cc1 [Example 157, 2-butyl-3-[(1S)-1-(4-fluorophenyl)ethyl]-6-hydroxy-5-[(3R)-3-phenylpyrrolidine-1-carbonyl]-3,4-dihydropyrimidin-4-one]
EC50 [2]: 100 to 300 nM

CCc1cccc(CC)c1-n1c(-c2ccn(C3CC3)n2)nc(=O)c(C(=O)N2CCC(c3ncc(F)cc3F)C2)c1O (single isomer, unassigned) [Example 325, 2-(1-cyclopropyl-1H-pyrazol-3-yl)-1-(2,6-diethylphenyl)-5-[3-(3,5-difluoropyridin-2-yl)pyrrolidine-1-carbonyl]-6-hydroxy-1,4-dihydropyrimidin-4-one]
EC50 [1]: 0.01 to 10 nM

COc1cccc(OC)c1-n1c(COC2CC2)nc(=O)c(C(=O)N2CCC(c3ccccc3F)C2)c1O (single isomer, unassigned) [Example 13, 2-(cyclopropoxymethyl)-1-(2,6-dimethoxyphenyl)-5-(3-(2-fluorophenyl)pyrrolidine-1-carbonyl)-6-hydroxy-pyrimidin-4(1H)-one]
EC50 [2]: 0.01 to 10 nM

CC[C@@H](c1ccccc1)n1c(-c2nc(C)cs2)nc(=O)c(C(=O)N2CCC(c3ccc(F)cn3)C2)c1O (single isomer, unassigned) [Example 322]
EC50 [1]: 0.01 to 10 nM

CC[C@@H](c1cc(F)cc(F)c1)n1c(-c2cnn(C)c2)nc(=O)c(C(=O)N2CCC(c3ccccc3OC)C2)c1O (single isomer, unassigned) [Example 198]
EC50 [2]: 0.01 to 10 nM

COc1cccc(OC)c1-n1c(CCC2CC2)nc(=O)c(C(=O)N2CCC(c3ncc(F)cc3F)C2)c1O (single isomer, unassigned) [Example 169, 2-(2-cyclopropylethyl)-5-[3-(3,5-difluoropyridin-2-yl)pyrrolidine-1-carbonyl]-1-(2,6-dimethoxyphenyl)-6-hydroxy-1,4-dihydropyrimidin-4-one]
EC50 [2]: 0.01 to 10 nM

COc1cccc(OC)c1-n1c(COC2CC2)nc(=O)c(C(=O)N2CCC(c3ccccc3Cl)C2)c1O (single isomer, unassigned) [Example 22, 5-(3-(2-chlorophenyl)pyrrolidine-1-carbonyl)-2-(cyclopropoxymethyl)-1-(2,6-dimethoxyphenyl)-6-hydroxypyrimidin-4(1H)-one]
EC50 [2]: 0.01 to 10 nM

COc1cccc(OC)c1-n1c(-c2cccc(C)c2)nc(=O)c(C(=O)N2CCC(c3ncc(F)cc3F)C2)c1O (single isomer, unassigned) [Example 244, 5-[3-(3,5-difluoropyridin-2-yl)pyrrolidine-1-carbonyl]-1-(2,6-dimethoxyphenyl)-6-hydroxy-2-(3-methylphenyl)-1,4-dihydropyrimidin-4-one]
EC50 [1]: 0.01 to 10 nM

CC[C@@H](c1cc(F)cc(F)c1)n1c(-c2nc(C)cs2)nc(=O)c(C(=O)N2CCC(c3ccc(F)cn3)C2)c1O (single isomer, unassigned) [Example 206]
EC50 [2]: 0.01 to 10 nM

COc1cccc(OC)c1-n1c(CC2CC2)nc(=O)c(C(=O)N2CCC(c3ccc(Cl)cc3)C2)c1O (single isomer, unassigned) [Example 228, 5-[3-(4-chlorophenyl)pyrrolidine-1-carbonyl]-2-(cyclopropylmethyl)-1-(2,6-dimethoxyphenyl)-6-hydroxy-1,4-dihydropyrimidin-4-one]
EC50 [1]: 0.01 to 10 nM
